In paper PMC7129073 (Clinical Microbiology and Infection, 2015):
≈ marks a conversion by molar mass, not a printed value. Like-named read-outs stand apart in the source and are kept apart here.

Columns and labels:
[1] = test system: Coagulase Negative Staphylococci; assay: E-test susceptibility; format: cell-based
[2] = test system: S. aureus; assay: E-test susceptibility; format: cell-based, Staphylococcus aureus
[3] = test system: foreign body infection Staphylococcus epidermidis strains; assay: NCCLS disk diffusion; format: cell-based; conditions: 86 strains
[4] = test system: F. necrophorum; assay: E-test, 13 clinical isolates; format: cell-based, Fusobacterium necrophorum; conditions: for MIC50 / MIC90: Fusobacterium necrophorum
[5] = test system: S. pneumoniae (SPN); assay: SENTRY Brazil, NCCLS broth microdilution; format: cell-based, Streptococcus pneumoniae
[6] = test system: S. pneumoniae; assay: Broth microdilution; format: cell-based, Streptococcus pneumoniae; conditions: 275 isolates
[7] = test system: S. pneumoniae; format: cell-based, Streptococcus pneumoniae
[8] = test system: C. difficile; assay: E-test, isolates from a department of surgery; format: cell-based, Clostridium difficile; conditions: Clostridioides difficile, read-out: MIC of high level resistant strains
[9] = test system: viridans group streptococci (VGS); assay: MIC; format: cell-based
[10] = test system: C. jejuni ATCC 33560; assay: VetMIC broth microdilution, QC strain; format: cell-based; conditions: Campylobacter jejuni, ATCC33560, read-out: QC limits (MIC)
[11] = test system: C. glabrata; assay: Antifungal susceptibility; format: cell-based, Candida glabrata
[12] = test system: C. albicans; assay: Antifungal susceptibility; format: cell-based, Candida albicans
[13] = test system: Klebsiella; assay: SMART 2003 Europe, microdilution; format: cell-based, Klebsiella spp.; conditions: 341 isolates
[14] = test system: S. pneumoniae; assay: SELECT study, levofloxacin-treated RTIs caused by S. pneumoniae; format: in vivo, human
[15] = test system: E. coli; assay: SMART 2003 Europe, microdilution; format: cell-based, Escherichia coli; conditions: 1106 isolates
[16] = test system: Enterobacteriaceae; assay: SMART 2003 Europe, microdilution; format: cell-based; conditions: 1948 isolates
[17] = test system: Moraxella catarrhalis (MC); assay: MIC; format: cell-based; conditions: 2497 isolates
[18] = test system: Haemophilus influenzae (HI); assay: MIC; format: cell-based; conditions: 7489 isolates
[19] = test system: S. pneumoniae; assay: MIC of invasive strains, Saint George Hospital 2001–2004; format: cell-based, Streptococcus pneumoniae
[20] = test system: Streptococcus pneumoniae (SPN); assay: MIC; format: cell-based; conditions: 8378 isolates
[21] = test system: Streptococcus agalactiae strains P0162 and P0425; assay: Microdilution; format: cell-based
[22] = test system: inducible Enterobacteriaceae; assay: SMART 2003, intraabdominal isolates; format: cell-based
[23] = test system: Pseudomonas aeruginosa (PA); assay: MIC; format: cell-based
[24] = test system: S. aureus; assay: NCCLS broth microdilution, SSTI isolates; format: cell-based; conditions: Staphylococcus aureus
[25] = test system: Acinetobacter; assay: Disk diffusion; format: cell-based
[26] = test system: S. pneumoniae; assay: PROTEKT Italy, NCCLS microdilution; format: cell-based, Streptococcus pneumoniae
[27] = test system: S. pneumoniae (SPN); assay: NCCLS broth microdilution, fluoroquinolones 1999–2004; format: cell-based, Streptococcus pneumoniae; conditions: Streptococcus pneumoniae, read-out: MIC90 during the six years, 1999–2004
[28] = test system: Streptococcus pyogenes (SPY); assay: MIC; format: cell-based; conditions: 2522 isolates
[29] = test system: Clostridium difficile; assay: microbe, parasite or virus in culture; format: cell-based
[30] = test system: Clostridium difficile (CD); assay: Agar dilution MIC, CDAD isolates Montreal; format: cell-based; conditions: Clostridioides difficile
[31] = test system: B. fragilis strains; assay: E-test MIC before and after passages on metronidazole agar; format: cell-based; conditions: Bacteroides fragilis
[32] = test system: Enterobacter spp; assay: E-test susceptibility; format: cell-based
[33] = test system: Pseudomonas aeruginosa (PSA); assay: Vitek 2 susceptibility, urine isolates of children; format: cell-based; conditions: both departments
[34] = test system: E. faecalis; assay: E-test susceptibility; format: cell-based, Enterococcus faecalis
[35] = test system: Pseudomonas spp.; assay: MIC; format: cell-based
[36] = test system: K. oxytoca; assay: E-test susceptibility; format: cell-based, Klebsiella oxytoca
[37] = test system: Gram-negative rods; assay: Microscan MIC, blood culture isolates; format: cell-based
[38] = test system: B. fragilis group; assay: NCCLS broth microdilution, beta-lactamase positive isolates; format: cell-based, Bacteroides fragilis group; conditions: 449 isolates
[39] = test system: B.cepacia; assay: Italian survey of severe infections 2003, MIC; format: cell-based, Burkholderia cepacia
[40] = test system: Escherichia coli (ECO); assay: Broth microdilution; format: cell-based; conditions: 2001
[41] = test system: E. coli; assay: E-test susceptibility; format: cell-based, Escherichia coli
[42] = test system: A. baumannii; assay: Italian survey of severe infections 2003, MIC; format: cell-based, Acinetobacter baumannii
[43] = test system: Salmonella serotype Typhimurium; assay: Disk diffusion, food isolates Spain; format: cell-based; conditions: n = 53
[44] = test system: S. aureus SCVs; assay: Resistance of small colony variants from cystic fibrosis patients; format: cell-based, Staphylococcus aureus; conditions: CF patients, Frankfurt 2004
[45] = test system: H. influenzae; format: cell-based, Haemophilus influenzae
[46] = test system: S. maltophilia; assay: Susceptibility of respiratory isolates of cancer patients; format: cell-based, Stenotrophomonas maltophilia; conditions: 40 patients
[47] = test system: H.influenzae; assay: PROTEKT Italy, NCCLS microdilution; format: cell-based, Haemophilus influenzae
[48] = test system: Salmonella serotype Enteritidis; assay: Disk diffusion, food isolates Spain; format: cell-based; conditions: n = 96
[49] = UTI under TMP-SMX prophylaxis after renal transplantation; format: in vivo, human; conditions: prophylaxis for 12 months; 104 of 336 patients
[50] = test system: H. influenzae; assay: Disk diffusion, sputum isolates Athens 2001–2004; format: cell-based, Haemophilus influenzae
[51] = test system: M. catarrhalis; assay: PROTEKT Italy, NCCLS microdilution; format: cell-based, Moraxella catarrhalis
[52] = test system: glycopeptide intermediate Staphylococcus species (GISS); assay: VITEK II, screening plate and E test, blood isolates; format: cell-based, coagulase-negative Staphylococci; conditions: 73 GISS strains
[53] = test system: H. influenzae; assay: Broth microdilution; format: cell-based, Haemophilus influenzae; conditions: 267 isolates
[54] = test system: Escherichia coli; assay: Vitek 2 susceptibility, urine isolates of children; format: cell-based
[55] = ICU, SRGA breakpoints, tigecycline tentative S ≤2 μg/ml
[56] = 37 isolates selected as resistant to beta-lactams

For `CO[C@H]1/C=C/O[C@@]2(C)Oc3c(C)c(O)c4c(O)c(c(/C=N/N5CCN(C)CC5)c(O)c4c3C2=O)NC(=O)/C(C)=C\C=C\[C@H](C)[C@H](O)[C@@H](C)[C@@H](O)[C@@H](C)[C@H](OC(C)=O)[C@@H]1C` [Rifampicin], the Susceptibility ([1]; ICU) was 86%, the Susceptibility ([1]; non-ICU) was 97% and the Susceptibility [2, 55] was 99/99%. The Susceptibility ([2]; non-ICU) was 99/99%.
For `CCC[C@@H]1C[C@@H](C(=O)N[C@@H]([C@H]2O[C@H](SC)[C@H](O)[C@@H](O)[C@H]2O)[C@H](C)Cl)N(C)C1` [clindamycin], the “% resistant” value [3] was “More than 30%”, the MIC range [4] was 0.016 to 0.125 µg/mL and the MIC50 [4] was 0.032 µg/mL (≈ 0.0753 µM). For the same molecule, the MIC90 [4] was 0.064 µg/mL (≈ 0.151 µM), the “% S” value [5]; 1998 was 94/- % and the “% S” value [5]; 1999 was 95/- %. For the same molecule, the “% S” value [5]; 2000 was 96/- %, the “% S” value [5]; 2001 was 95/- % and the “% S” value [5]; 2002 was 100/- %. The “% S” value [5]; 2003 was 98/- %, the Susceptibility [6] was 91.3% and the Susceptibility [2, 55] was 99%. It also gave a Susceptibility ([2]; non-ICU) of 96%, a resistant [7] of 5% and an MIC [8] of over 256 µg/mL. For the same molecule, the MIC50 [9] was 0.06 µg/mL (≈ 0.141 µM) and the MIC90 [9] was 256 µg/mL (≈ 602 µM).
In the case of `CCN1CCN(c2cc3c(cc2F)c(=O)c(C(=O)O)cn3C2CC2)CC1` [enrofloxacin], the MIC [10] is reported as 0.25 to 0.5 µg/mL (≈ 0.696 to 1.39 µM).
`CC(=O)N1CCN(c2ccc(OCC3COC(Cn4ccnc4)(c4ccc(Cl)cc4Cl)O3)cc2)CC1` (stereo not drawn) [ketokonazole] showed an intermediate susceptibility [11] of 22% and an intermediate susceptibility [12] of 2%.
With `C[C@H]1COc2c(N3CCN(C)CC3)c(F)cc3c(=O)c(C(=O)O)cn1c23` [levofloxacin] the per cent susceptible [13] was 93%, the clinical successes ([14]; 500 mg once or twice daily, 90/100 subjects) was 90% and the “clinical success, PNSSPs” value ([14]; 44/49) was 89.8%. The “clinical success, PSSPs” value ([14]; 46/51) was 90.2%, the “died due to initial infection” value ([14]; eight subjects) was 8% and the clinical failures ([14]; two subjects) was 2%. It also gave a Susceptibility [6] of 99.6%, a per cent susceptible [15] of 81% and a per cent susceptible [16] of 86%. The MIC90 [17] was 0.12 ig/ml, the MIC90 [18] was 0.12 ig/ml and the “% S” value [19] was 100%. The “%R” value [19] was 0%, the MIC90 [20] was 1 ig/ml and the MIC ([21]; strain P0162 (ParC Ser79Phe, GyrA Glu85Ala)) was 8 µg/mL (≈ 22.1 µM). For the same molecule, the MIC ([21]; strain P0425 (ParC Ser79Phe, GyrA Glu85Lys)) was over 32 µg/mL, the “% susceptible” value ([22]; LA (N=113)) was 80% and the “isolates with MPC ≥ 8 μg/ml” value [23] was 64%. The MPC range ([23]; 10 billion organisms on agar) was 2 to 16 µg/mL, the MIC range ([23]; patients P1 and P2) was 0.25 to 2 µg/mL and the MIC50 [24] was 0.25 µg/mL (≈ 0.692 µM). It also gave an MIC50 [9] of 0.5 µg/mL (≈ 1.38 µM), an MIC90 [9] of 1 µg/mL (≈ 2.77 µM) and a resistant isolates [25] of 78.4%. The susceptible ([26]; year 1: 2002) was 97.3%, the susceptible ([26]; year 2: 2003) was 97.1% and the MIC90 [27] was 1 to 2 µg/mL (≈ 2.77 to 5.53 µM). The MIC90 [28] was 1 ig/ml.
With `Cc1ncc([N+](=O)[O-])n1CCO` [metronidazole] the MIC ([29]; Clostridioides difficile, read-out: MICs of selected resistant isolates) was 16 to 64 µg/mL (≈ 93.5 to 374 µM), the prevalence of resistance ([29]; authors' institution) was 6% and the MIC range [4] was 0.016 to 2 µg/mL. It also gave an MIC50 [4] of 0.125 µg/mL (≈ 0.73 µM), an MIC90 [4] of 0.5 µg/mL (≈ 2.92 µM) and an MIC ([30]; read-out: median MIC, 2003–4) of 2 µg/mL (≈ 11.7 µM). The MIC ([30]; read-out: median MIC, other ribotypes) was 0.5 µg/mL (≈ 2.92 µM), the MIC ([31]; 10 nim-negative clinical isolates) was 0.25 to 0.75 µg/mL (≈ 1.46 to 4.38 µM) and the MIC ([31]; ATCC25285, ATCC 25285, nim-negative) was 0.19 µg/mL (≈ 1.11 µM). It also gave an MIC ([31]; four nim-positive reference strains) of 3 to 8 µg/mL (≈ 17.5 to 46.7 µM) and an MIC ([31]; three nim-positive clinical isolates) of over 256 µg/mL.
With piperacillin/tazobactam the Susceptible isolates ([32]; ICU) was 78%, the Susceptible isolates ([32]; non ICU) was 93% and the per cent susceptible [13] was 85%. The Susceptible isolates [33] was 74-100%, the Susceptibility ([34]; ICU, SRGA breakpoints, tigecycline tentative ≤2 μg/ml) was 99% and the Susceptibility ([34]; non-ICU) was 100%. The susceptible strains [35] was 92%, the Susceptible isolates ([36]; ICU) was 100% and the Susceptible isolates ([36]; non ICU) was 94%. For the same molecule, the per cent susceptible [15] was 94%, the per cent susceptible [16] was 91% and the “susceptible strains (n/N)” value [37] was 16/16. The “isolates inhibited at =/< 32 mg/L” value [38] was over 99%, the resistance [39] was 7.2% and the “% susceptible” value ([22]; A/P (N = 200)) was 80%. For the same molecule, the “% susceptible” value ([22]; EU (N = 354)) was 85%, the “% susceptible” value ([22]; LA (N=113)) was 78% and the “% susceptible” value ([22]; NA (N = 163)) was 82%. For the same molecule, the resistant isolates [25, 56] was 43.2%, the susceptible ([40]; NAL-resistant isolates) was 85.7% and the susceptible ([40]; NAL-susceptible isolates) was 94.2%. The Susceptible isolates [41, 55] was 98%, the Susceptible isolates ([41]; non ICU) was 99% and the resistance [42] was 13.3%.
With trimethoprim/sulfamethoxazole the “resistance rate (NCCLS M100-S13)” value [43] was 19%, the “resistance rate of SCV isolates” value [44] was “All SCV isolates were resistant” and the resistant [45] was 19%. It also gave a Susceptibility [6] of 46.2%, a Susceptible isolates [46] of 93% and a resistance ([47]; year 1) of 13.6%. The resistance ([47]; year 2) was 14.1%, the “resistance rate (NCCLS M100-S13)” value [48] was 7% and the “patients with UTI within 2 years after transplantation” value [49] was 31%. For the same molecule, the resistance rate ([50]; 2001–2002) was 26.9%, the resistance rate ([50]; 2003–2004) was 13.4% and the susceptibility rate ([51]; year 1) was 77.3%. The susceptibility rate ([51]; year 2) was 81.1%, the resistant isolates [25, 56] was 59.5% and the resistance rate [52] was 38,3%. For the same molecule, the susceptible [53] was 54.3%, the susceptibility rate ([54]; paediatric surgical unit (PSU)) was 35% and the susceptibility rate ([54]; paediatric units (PU)) was 71%.
